# Test results published in patent publication US7943577B2, “Alpha-fetoprotein peptides and uses thereof” (Albany Medical College, priority 2001, dated 2011).
# Assays:
# [1] = system: BHP 2-7 papillary thyroid cancer cells; experiment: PCNA and nuclear ERα immunoblot, BHP 2-7; format: cell-based; design: key to Total Nuclear Estrogen Receptor / PCNA accumulation: “+” indicates increase; “−” indicates decrease; “NC” indicates no change
# Method: (§1) Cell lines. Glioma cells: C6 cells were cultured in F-12K medium with 18% FBS. F98 cells and GL261 cells were cultured in DMEM with 10% FBS. Head and neck cancer: 22B cells were cultured in DMEM with 10% FBS. Papillary thyroid cancers: BHP2-7 cells and BHP18-21 cells were cultured in DMEM with 10% FBS. Small cell lung cancer: HTB184 cells were cultured in RPMI medium with 10% FBS. Breast cancers: MCF-7 cells were cultured in DMEM (w/o phenol red) with 5% FBS and MDA-MB cells were cultured in DMEM with 10% FBS. Colon cancer: Colo 205 cells were cultured in RPMI medium with 10% FBS. Ovarian cancer: OVCAR-3 cells were culture in RPMI medium with 20% FBS supplemented with insulin. Prostate cancers: LNCaP cells were cultured in RPMI medium with 10% FBS. DU145 cells were cultured in MEM with 10% FBS and PC3 cells were cultured in F-12 medium with 10% FBS. Cervical cancer: HeLa cells were cultured in MEM with 10% FBS. Melanoma cells were cultured in DMEM with 10% FBS. These conditions were determined to maintain cellular production of proliferating cell nuclear antigen (PCNA) at high levels immediately prior to study of AFP-related peptide. All cell cultures were maintained in a 5% CO2/95% O2 incubator at 37 C. Cell fractionation. Fractionation in a microfuge and preparation of nucleoproteins was by our previously reported methods (1-3). Nuclear extracts were prepared by resuspension of the crude nuclei in high salt buffer (hypotonic buffer with 420 mM NaCl and 20% glycerol) at 4° C. with rocking for 1 hr. The supernatants were collected after subsequent centrifugation at 4° C. and 13,000 rpm for 10 min. Immunoblotting. The techniques are standard and have been described in a number of our publications (1-3). In brief, nucleoproteins were separated on discontinuous SDS-PAGE and then transferred by electroblotting to nitocellulose membranes (Millipore, Bedford, Mass.). […] Immunoreactive proteins are detected by chemiluminescence.
# [2] = system: PC3 prostate carcinoma cells; experiment: PCNA and nuclear ERα immunoblot, PC3; format: cell-based, human; design: key to Total Nuclear Estrogen Receptor / PCNA accumulation: “+” indicates increase; “−” indicates decrease; “NC” indicates no change
# Method: as §1
# [3] = system: MDA-MB breast cancer cells; experiment: PCNA and nuclear ERα immunoblot, MDA-MB; format: cell-based, human; design: key to Total Nuclear Estrogen Receptor / PCNA accumulation: “+” indicates increase; “−” indicates decrease; “NC” indicates no change
# Method: as §1
# cancer cell lines = experiment: PCNA and nuclear ERα immunoblot, summary over cancer cell lines; format: cell-based; conditions: E2 1×10^−9 M
# Method: as §1
# melanoma cells = experiment: PCNA and nuclear ERα immunoblot, melanoma; format: cell-based, human; design: key to Total Nuclear Estrogen Receptor / PCNA accumulation: “+” indicates increase; “−” indicates decrease; “NC” indicates no change
# Method: Cell lines. Glioma cells: C6 cells were cultured in F-12K medium with 18% FBS. F98 cells and GL261 cells were cultured in DMEM with 10% FBS. Head and neck cancer: 22B cells were cultured in DMEM with 10% FBS. Papillary thyroid cancers: BHP2-7 cells and BHP18-21 cells were cultured in DMEM with 10% FBS. Small cell lung cancer: HTB184 cells were cultured in RPMI medium with 10% FBS. Breast cancers: MCF-7 cells were cultured in DMEM (w/o phenol red) with 5% FBS and MDA-MB cells were cultured in DMEM with 10% FBS. Colon cancer: Colo 205 cells were cultured in RPMI medium with 10% FBS. Ovarian cancer: OVCAR-3 cells were culture in RPMI medium with 20% FBS supplemented with insulin. Prostate cancers: LNCaP cells were cultured in RPMI medium with 10% FBS. DU145 cells were cultured in MEM with 10% FBS and PC3 cells were cultured in F-12 medium with 10% FBS. Cervical cancer: HeLa cells were cultured in MEM with 10% FBS. Melanoma cells were cultured in DMEM with 10% FBS. These conditions were determined to maintain cellular production of proliferating cell nuclear antigen (PCNA) at high levels immediately prior to study of AFP-related peptide. All cell cultures were maintained in a 5% CO2/95% O2 incubator at 37 C. Cell fractionation. Fractionation in a microfuge and preparation of nucleoproteins was by our previously reported methods (1-3). Nuclear extracts were prepared by resuspension of the crude nuclei in high salt buffer (hypotonic buffer with 420 mM NaCl and 20% glycerol) at 4° C. with rocking for 1 hr. The supernatants were collected after subsequent centrifugation at 4° C. and 13,000 rpm for 10 min. Immunoblotting. The techniques are standard and have been described in a number of our publications (1-3). In brief, nucleoproteins were separated on discontinuous SDS-PAGE and then transferred by electroblotting to nitocellulose membranes (Millipore, Bedford, Mass.). After blocking with 5% milk in Tris-buffered saline containing 0.1% Tween, the membranes were incubated with either mouse anti-human PCNA (Santa Cruz Biotech., Santa Cruz, Calif.) or mouse anti-human ER antibody (Santa Cruz) overnight. Secondary antibody was rabbit anti-mouse IgG (1:1000)(Dako), depending upon the origin of the primary antibody. Immunoreactive proteins are detected by chemiluminescence.
# [4] = system: BHP 18-21 papillary thyroid cancer cells; experiment: PCNA and nuclear ERα immunoblot, BHP 18-21; format: cell-based; design: key: “+” indicates increase; “−” indicates decrease; “NC” indicates no change
# Method: as §1, with “(1-3).” for “(1-3). Nuclear extracts were prepared by resuspension of the crude nuclei in high salt buffer (hypotonic buffer with 420 mM NaCl and 20% glycerol) at 4° C. with rocking for 1 hr. The supernatants were collected after subsequent centrifugation at 4° C. and 13,000 rpm for 10 min. Immunoblotting. The techniques are standard and have been described in a number of our publications (1-3). In brief, nucleoproteins were separated on discontinuous SDS-PAGE and then transferred by electroblotting to nitocellulose membranes (Millipore, Bedford, Mass.).”
# [5] = system: MCF-7 breast cancer cells; experiment: PCNA and nuclear ERα immunoblot, MCF-7; format: cell-based, human; design: key to Total Nuclear Estrogen Receptor / PCNA accumulation: “+” indicates increase; “−” indicates decrease; “NC” indicates no change
# Method: as §1
# [6] = system: ovarian cancer OVCAR-3 cells; experiment: PCNA and nuclear ERα immunoblot, OVCAR-3; format: cell-based; design: key to Total Nuclear Estrogen Receptor / PCNA accumulation: “+” indicates increase; “−” indicates decrease; “NC” indicates no change
# Method: as §1
# [7] = BHP 2-7 (Papillary Thyroid Cancer)
structure (smiles),measurement,setting,value
"C[C@]12CC[C@@H]3c4ccc(O)cc4CC[C@H]3[C@@H]1CC[C@@H]2O [E2, 17β-estradiol]",PCNA accumulation,[1]; [7],+
same,Total Nuclear Estrogen Receptor,[1]; [7],+
same,nuclear ERα,"[1]; BHP 2-7, 10^−9 M E2 or 10^−7 M AFP-peptide, 24 h",increased nuclear accumulation of ERα
same,PCNA accumulation,[2]; PC 3 (Prostate Cancer),−
same,Total Nuclear Estrogen Receptor,[2]; PC 3 (Prostate Cancer),NC
same,nuclear ERα,"[2]; PC3, 10^−9 M E2 or 10^−6 M AFP-peptide, 24 h",did not increase nuclear accumulation of ERα
same,PCNA accumulation,[3]; MDA-MB (Breast Cancer),NC
same,Total Nuclear Estrogen Receptor,[3]; MDA-MB (Breast Cancer),NC
same,nuclear ER,"[3]; MDA-MB, 10^−9 M E2 or 10^−6 M peptide, 24 h",no significant change in ER
same,total nuclear accumulation of ERα,"cancer cell lines; 24 hr, C6, F98, GL261, 22B, BHP 2-7, BHP 18-21, HTB 184, MCF-7 and HeLa cells",increased total nuclear accumulation of estrogen receptor-α (ERα)
same,total nuclear ERα,"cancer cell lines; MDA-MB, Colo205, OVCAR-3, LNCaP, and PC3 cells",no significant change in total nuclear ERα
same,total nuclear ERα,cancer cell lines; melanoma cells,decreased the total nuclear ERα
same,PCNA accumulation,melanoma cells; Melanoma (Skin Cancer),−
same,Total Nuclear Estrogen Receptor,melanoma cells; Melanoma (Skin Cancer),−
same,nuclear ERα,"melanoma cells; melanoma, 10^−9 M E2 or 10^−6M AFP-peptide, 24 h",decrease nuclear ERα accumulation
same,PCNA accumulation,"melanoma cells; melanoma, AFP-peptide 10^−9 to 10^−7 M (left panel), 10^−9 M E2 or 10^−6M AFP-peptide (right panel), 24 h",reduce PCNA
same,PCNA accumulation,[4],+
same,Total Nuclear Estrogen Receptor,[4],+
same,PCNA accumulation,[5]; MCF-7 (Breast Cancer),+
same,Total Nuclear Estrogen Receptor,[5]; MCF-7 (Breast Cancer),+
same,nuclear accumulation of activated ER (phosphoERα),"[5]; MCF-7, 10^−9 M E2 or 10^−8 M AFP-peptide, 24 h",increased nuclear accumulation of activated ER (phosphoERα)
same,PCNA accumulation,[6]; OVCAR-3 (Ovarian Cancer),+
same,Total Nuclear Estrogen Receptor,[6]; OVCAR-3 (Ovarian Cancer),NC
same,nuclear ERα,"[6]; OVCAR-3, 10^−9 M E2 or 10^−7M AFP-peptide, 24 h",did not increase nuclear accumulation of ERα
